Data: patent US20240279202A1 (NURIX THERAPEUTICS, INC., priority 2021, published 2024)

Experiments:
[1] = Mouse PK analysis (blood/plasma concentration after oral administration); type: in vivo; conditions: mice
Protocol: Compounds 1, 3, 7, and 42 were formulated and administered at 90 mg/kg to mice by oral gavage (PO). Blood was collected at defined time points (after 1, 2, and 6 hours) after compounds administration to determine PK parameters. Concentration increased through 6 hours. Six hours later mice were sacrificed and splenocytes were isolated and used to prepare protein lysates. Total protein levels were determined in the lysates using the BCA assay according to standard methods. Equal amounts of protein were then analyzed by Western blot to determine the level of ITK expression in each sample. ITK band intensities were measured using Alpha View software and the percent of ITK remaining in each test animal was determined relative to the mean of ITK levels in vehicle control samples.
Compounds 16, 17, and 18 were administered to mice orally. After 6 hours or 24 hours, splenocytes cells were harvested. ITK was evaluated by Western blotting. Plasma concentrations were determined by LC/MS/MS. Plasma samples were protein precipitated by addition of 100 μl of acetonitrile containing 50 ng/ml of internal standard. The resulting mixture was vortexed and centrifuged at 4000 RPM for 5 minutes. An aliquot of the resultant supernatant (75 μl) was added to 75 μl of 0.1% formic acid in water to constitute the final sample for injection. Samples were injected on a Shimadzu Exion LC Binary Gradient AD Pump HLPC system connected to a Sciex QTRAP 6500+mass spectrometer. Five μl of sample was injected onto a Waters Acquity UPLC BEH C18 column 130A (2.1×30 mm, […]) at 40° C. utilizing a flow rate of 700 μl/minute. Mobile Phase A was 0.1% formic acid in water and mobile phase B was 0.1% formic acid in acetonitrile. A linear gradient of 15-95% B over 1.0 minute was used. The mass spectrometer was operated in positive ion electrospray mode with multiple reaction monitoring for maximum sensitivity. Sciex Analyst software (version 1.6.3) was used for LC/MS/MS instrument control and acquisition. Compound concentration was determined against a standard curve of internal standard versus compound peak area ratio. Noncompartmental PK parameters were determined using […] software (version 8.2.0.4383) from Certara. Plasma concentrations from the LC/MS/MS analyses, dose, route of administration, and desired units were utilized for PK parameter calculations. […] FIG. 4C provides the concentration over time of compound 17 following in vivo oral administration in the 6 hour and 24 hour assays.
Cmax, Tmax and AUClast were all calculated using a WinNonLin Phoenix 64 v 8.2.0.4383. Using non-compartmental analysis, Tmax, Cmax and AUClast were determined as follows: • Tmax—Time of maximum observed concentration. • Cmax—Maximum observed concentration, occurring at time Tmax, as defined above. • AUClast—Area under the curve from the time of dosing to the time of the last measurable (positive) concentration (Tlast).

ITK = target: T1, ITK (Homo sapiens, UniProt Q08881); experiment: ITK degradation MSD (Meso Scale Discovery) assay; type: cell-based; set-up: either human Jurkat (Clone E6-1 ATCC TIB-152) or Motl4 (ATCC CRL-1552), were plated; endogenous in cells; host or cells: Jurkat clone E6-1 (ATCC TIB-152) or Molt4 (ATCC CRL-1552); conditions: Jurkat or Molt4 cells, 4 or 6 hrs
T1 sequence (Q08881 1-620): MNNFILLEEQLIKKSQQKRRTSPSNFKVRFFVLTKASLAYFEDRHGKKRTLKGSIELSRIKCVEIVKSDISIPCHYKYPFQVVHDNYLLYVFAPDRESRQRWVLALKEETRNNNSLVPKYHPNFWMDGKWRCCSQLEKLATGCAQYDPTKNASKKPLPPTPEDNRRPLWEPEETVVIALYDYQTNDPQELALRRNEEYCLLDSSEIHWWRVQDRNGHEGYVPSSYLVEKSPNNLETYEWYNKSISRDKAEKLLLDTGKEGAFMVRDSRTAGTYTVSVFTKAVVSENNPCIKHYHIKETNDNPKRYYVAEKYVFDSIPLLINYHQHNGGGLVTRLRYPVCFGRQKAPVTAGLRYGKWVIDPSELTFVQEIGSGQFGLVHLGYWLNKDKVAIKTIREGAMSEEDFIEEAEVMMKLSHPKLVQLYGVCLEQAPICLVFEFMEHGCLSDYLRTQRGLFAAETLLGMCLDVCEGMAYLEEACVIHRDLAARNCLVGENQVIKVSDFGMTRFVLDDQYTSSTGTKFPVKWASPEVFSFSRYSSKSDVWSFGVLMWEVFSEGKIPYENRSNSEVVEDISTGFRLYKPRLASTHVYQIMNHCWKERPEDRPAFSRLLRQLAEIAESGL
Protocol: ITK Degradation MSD (Meso Scale Discovery) Assay Compound dilution series (7-point, 5 fold dilutions in DMSO, rows B-H with replicate in Column 1⁄2, 3⁄4, 5⁄6, 7,8, at 2000× the final required concentrations were prepared in 96 well plates (Falcon, cat. no. 353077). Row A, Column 1-8 were control DMSO. The 2000× solutions ranged from 2 mM to 128 nM (final assay concentration range 1 μM to […]). The 2000× solutions were added to cells in […], for a final DMSO concentration of 0.5% and final assay compound concentration of 1×. For the cells, either human Jurkat (Clone E6-1 ATCC TIB-152) or Motl4 (ATCC CRL-1552), were plated at 1×10^6 cells/mL, 100 μL/well ([…]) in complete RPMI (10% FBS, 1% L-glutamine). Cells were incubated for 4 or 6 hrs at 32° C./6% CO2. Following incubation, plates were centrifuged at 1200 rpm for 5 min. supernatant was removed and 50 μL of cell lysis buffer ((MSD Tris lysis buffer (R60TX), Complete Mini EDTA-free protease inhibitor (Sigma 11836170001), Protease Inhibitor Cocktail (Sigma, P2714), Phosphatase Inhibitor Cocktail 2 and 3 (Sigma, P5726 and P0044), and Benzonase (Sigma, E1014)) was added to each well. Plates were sealed and shook at 4° C. for 30 min. Plates were centrifuged and 45 μL was removed for plate assays. Assay plate preparation: Meso Scale Discovery (MSD) multi-array sm spot 96 well plates (Goat anti-Rabbit L^45-RA), were blocked with 3% BSA blocking buffer (3% Bovine Serum Albumin (Sigma A3059)+TBS 0.2% Tween-20) for 1 hr with gentle rocking at room temperature. Plates were then washed with 200 μL of 1× TBST (TBS 0.2% Tween-20) 3 times. After last wash, liquid was removed and 50 μL per well of capture antibody (abcam ITK Y402-ab32507) was added to plates at a 1:1000 dilution in blocking buffer (above). Plates were sealed and rocked at room temperature for 2 hrs. Plates were then washed 3 times with 200 μL of 1× TBST. After last wash, liquid was removed and 45 μL of cell lysate (from above) was added to each plate. Plates were sealed and rocked overnight at 4° C. Next day, cell lysates were removed, and assay plates were washed 3 times with 200 μL of 1× TBST. After last wash, liquid was removed and detection antibody (CST ITK (2F12) #2380) was added at 50 μL per well at a dilution of 1:1000 in blocking buffer. Plates were sealed and rocked at room temperature for 2 hrs. Plates were washed 3 times with 200 uL of 1× TBST. After last wash, liquid was removed, MSD Mouse anti-Rabbit sulfo tag (R32AC-1) was diluted to 1:1000 in blocking buffer. 50 μL was added to each well on the plate. Plates were sealed and incubated at room temperature for 1 hr. Plates were washed 3 times with 200 μL of 1× TBST. After last wash, liquid was removed and 150 μL of 1× MSD Read Buffer T ([…]) was then added to each well for ECL read out. For reading ECL signal, plate is read on a Meso Scale Discovery (MSD) MESO Sector S 600 plate reader. Percent ITK in then calculated as described below. Percent ITK remaining per sample was calculated as follows: [formula] Using Graphpad Prism, % ITK remaining values were plotted as a function of compound concentration. To determine DC50 and Dmax values, resulting curves were fit to the Prism curve-fitting equation “log(inhibitor) vs response-Variable slope (four parameters)” (reported best fit value IC50 used as DC50).

- Cal. Conc. Total (μM) 2 h ([1]; 2 h): BQL
- concentration at 6 h ([1]; mouse, plasma, oral, 90 mg/kg, 6 h, read-out: Cal. Conc. Total (μM) 6 h): 0.009 µM
- Dmax (ITK): 46%
SMILES: C[C@@]12Cc3[nH]nc(C(=O)Nc4cnn([C@H](c5ccccc5)C5CN(C(=O)C6CCN(c7ccc(C(=O)NC8CCC(=O)NC8=O)nc7)CC6)C5)c4)c3C[C@@H]1C2(F)F (stereo partly drawn) [Compound 40, (4aS,5aR)-N-(1-((1S)-(1-(1-(6-((2,6-dioxopiperidin-3-yl)carbamoyl)pyridin-3-yl)piperidine-4-carbonyl)azetidin-3-yl)(phenyl)methyl)-1H-pyrazol-4-yl)-5,5-difluoro-5a-methyl-1,4,4a,5,5a,6-hexahydrocyclopropa[f]indazole-3-carboxamide]
